Source: US12582784B2, “Dry powder inhalation system” (MannKind Corporation, priority 2008, dated 2026)

Assays:
[1] = Baseline-corrected glucose infusion rate (GIR) evaluation under hyperinsulinemic-euglycemic clamp; format: in vivo, human (subjects with type 1 diabetes mellitus); conditions: 10 IU sc RAA
Method: A phase I, open-label, single-dose, repeat administration study in subjects with type 1 diabetes (T1DM) was conducted to assess the pharmacokinetic profile or PK of 30 U of insulin-FDKP dosed as a single 30 U cartridge and compared to two 15 U cartridges administered with the present inhalation system. A 10 U subcutaneous injection of the rapid acting insulin analogue (RAA, HUMALOG® (Eli Lilly and Company, Indianapolis, IN)) was also tested. Subjects (age: 19-61 yrs) were randomized to 1 of 6 sequences. Fasted subjects received insulin-FDKP or RAA 4 to 6 hrs after initiating a hyperinsulinemic-euglycemic clamp. Randomization determined the order of insulin-FDKP dosing (first 2 treatment (tx) visits), and the location of the RAA injection (abdomen, arm or leg; 3rd tx visit). After dosing blood samples were taken and analyzed for insulin, insulin lispro and fumaryl diketopiperazine (FDKP (insulin-FDKP tx only)). When studying insulin-FDKP, the basal insulin infusion was performed with HUMALOG®, and when studying HUMALOG®, regular human insulin was used. The analytical methodologies enabled the independent measurement of each insulin tested.
This study also evaluated the effects of the dosages administered and the glucose infusion rate (GIR) requirements of the patients in the study. FIG. 19 illustrates the results of the GIR evaluation. […]

[2] = design: species or system human (subjects with type 1 diabetes mellitus); conditions: human, in vivo, sc
Method: The study was conducted in subjects with type 1 diabetes mellitus. This study was conducted to determine if a formulation for pulmonary delivery comprising insulin and a diketopiperazine in the formulation, 1) could be delivered consistently using different dosage strengths and 2) if linearity of dosing could be achieved with proportional doses, given that interchangeability of dosage strengths can be important for patient safety. […] Therefore, an important goal in the development of the pulmonary delivery system with a formulation comprising insulin and FDKP (insulin-FDKP) was to achieve dose linearity across the therapeutic dose range.
In the study, comparisons of insulin exposure following inhalation of two 15 U cartridges of an insulin inhalation powder to one 30 U cartridge of insulin inhalation powder were made. In addition, insulin bioavailability from a 30 U cartridge of insulin-FDKP inhalation powder was calculated, compared to a 10-IU subcutaneous (sc) injection of insulin lispro (rapid acting analogue [RAA]).
A phase I, open-label, single-dose, repeat administration study in subjects with type 1 diabetes (T1DM) was conducted to assess the pharmacokinetic profile or PK of 30 U of insulin-FDKP dosed as a single 30 U cartridge and compared to two 15 U cartridges administered with the present inhalation system. […]

insulin lispro [Humalog]
time after administration at which GIR peaked [1]: approximately 150 minutes | time at which GIR returned toward baseline [1]: ~300 min | Insulin PK parameters tmax [2]: 1 h
